Assay results taken from patent US20210290732A1, “GLP-1R and GCGR Agonists, Formulations, and Methods of Use” (Spitfire Pharma LLC, priority 2020, published 2021).
pEC50: −log10 of the molar value. Like-named read-outs stand apart in the source and are kept apart here. Blank lines part the entries; values can stand above or below the compound they belong to.

Tests used:
human GLP-1R = target: T1, human GLP-1R (Homo sapiens, UniProt P43220); assay: cAMP receptor activation assay, human GLP-1R cloned into CHO cells (DiscoverX LeadHunter / cAMP Hunter); format: cell-based; conditions: for Selectivity Ratio GLP-1R vs GCGR: SR = GCGR EC50/GLP-1 EC50, 0.1% BSA
T1 construct: host or cells: CHO-K1

GCGR = GCGR (Homo sapiens, UniProt P47871); assay: cAMP receptor activation assay, human GCGR cloned into CHO cells (DiscoverX LeadHunter / cAMP Hunter); format: cell-based; set-up: host or cells: CHO-K1
[1] = cAMP, CHO cells, 0.1% BSA containing buffers, read-out: pEC50 (SE) huGCGR (converted)
[2] = cAMP, CHO cells, 0.1% BSA containing buffers, read-out: pEC50 (SE) hu GLP-1 (converted)
[3] = ratio of EC50 in 0.1% BSA and 0.1% ovalbumin

T1 sequence (P43220 24-463): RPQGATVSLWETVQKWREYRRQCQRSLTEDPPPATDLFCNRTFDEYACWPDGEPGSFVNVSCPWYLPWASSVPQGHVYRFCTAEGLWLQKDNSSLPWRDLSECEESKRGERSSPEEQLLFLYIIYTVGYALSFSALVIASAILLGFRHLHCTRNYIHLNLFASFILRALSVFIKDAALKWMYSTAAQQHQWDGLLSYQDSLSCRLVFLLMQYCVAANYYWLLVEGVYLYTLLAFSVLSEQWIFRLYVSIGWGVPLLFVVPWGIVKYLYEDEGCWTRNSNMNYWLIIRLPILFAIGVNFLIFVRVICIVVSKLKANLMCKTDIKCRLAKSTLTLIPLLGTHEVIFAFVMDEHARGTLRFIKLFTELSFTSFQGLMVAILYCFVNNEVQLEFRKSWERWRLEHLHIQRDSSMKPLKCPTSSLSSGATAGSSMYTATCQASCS
Chain of GCGR (P47871 26-477): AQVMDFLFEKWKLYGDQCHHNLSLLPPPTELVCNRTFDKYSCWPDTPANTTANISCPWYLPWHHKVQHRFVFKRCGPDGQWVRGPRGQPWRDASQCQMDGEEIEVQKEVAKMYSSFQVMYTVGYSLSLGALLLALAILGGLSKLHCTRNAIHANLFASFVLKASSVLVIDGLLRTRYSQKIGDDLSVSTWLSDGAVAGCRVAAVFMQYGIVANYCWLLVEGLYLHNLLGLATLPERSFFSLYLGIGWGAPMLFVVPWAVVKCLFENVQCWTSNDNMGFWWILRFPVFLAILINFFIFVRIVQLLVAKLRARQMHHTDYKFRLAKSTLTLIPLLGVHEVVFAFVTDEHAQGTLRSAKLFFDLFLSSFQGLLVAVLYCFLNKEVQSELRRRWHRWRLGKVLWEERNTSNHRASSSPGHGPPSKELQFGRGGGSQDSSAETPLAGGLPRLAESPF

SMILES: CCCCCCCCCCCCO[C@@H]1O[C@H](C(=O)O)[C@@H](O[C@H]2O[C@H](C(=O)NCCCC[C@H](NC(=O)[C@@H](NC(=O)[C@H](Cc3ccccc3)NC(=O)[C@H](CCC(=O)O)NC(=O)[C@@H]3CCCCNC(=O)CC[C@H](NC(=O)[C@H](CC(=O)O)NC(=O)[C@H](CC(C)C)NC(=O)[C@H](Cc4ccc(O)cc4)NC(=O)[C@H](CCCCN)NC(=O)[C@H](CO)NC(=O)[C@H](Cc4ccc(O)cc4)NC(=O)[C@H](CC(=O)O)NC(=O)[C@H](CO)NC(=O)[C@@H](NC(=O)[C@H](Cc4ccccc4)NC(=O)[C@@H](NC(=O)CNC(=O)[C@H](CCC(N)=O)NC(=O)C(C)(C)NC(=O)[C@@H](N)Cc4c[nH]cn4)[C@@H](C)O)[C@@H](C)O)C(=O)N[C@@H](CCC(N)=O)C(=O)N[C@@H](C)C(=O)N[C@@H](C)C(=O)N3)[C@@H](C)CC)C(=O)N[C@@H](Cc3c[nH]c4ccccc34)C(=O)N[C@@H](CC(C)C)C(=O)N[C@@H](CC(C)C)C(=O)N[C@@H](CCC(N)=O)C(=O)N[C@H](C(N)=O)[C@@H](C)O)[C@@H](O)[C@H](O)[C@H]2O)[C@H](O)[C@H]1O [analogue 7]
pEC50 (human GLP-1R): 10.30 | EC50 (GCGR; [1]): 14.8 pM

SMILES: CCCCCCCCCCCCCCCCCCO[C@@H]1O[C@H](C(=O)NCCCC[C@H](NC(=O)[C@@H](NC(=O)[C@H](Cc2ccccc2)NC(=O)[C@H](CCC(=O)O)NC(=O)[C@@H]2CCCCNC(=O)CC[C@H](NC(=O)[C@H](CC(=O)O)NC(=O)[C@H](CC(C)C)NC(=O)[C@H](Cc3ccc(O)cc3)NC(=O)[C@H](CCCCN)NC(=O)[C@H](CO)NC(=O)[C@H](Cc3ccc(O)cc3)NC(=O)[C@H](CC(=O)O)NC(=O)[C@H](CO)NC(=O)[C@@H](NC(=O)[C@H](Cc3ccccc3)NC(=O)[C@@H](NC(=O)CNC(=O)[C@H](CCC(N)=O)NC(=O)C(C)(C)NC(=O)[C@@H](N)Cc3c[nH]cn3)[C@@H](C)O)[C@@H](C)O)C(=O)N[C@@H](CCC(N)=O)C(=O)N[C@@H](C)C(=O)N[C@@H](C)C(=O)N2)[C@@H](C)CC)C(=O)N[C@@H](Cc2c[nH]c3ccccc23)C(=O)N[C@@H](CC(C)C)C(=O)N[C@@H](CC(C)C)C(=O)N[C@@H](CCC(N)=O)C(=O)N[C@H](C(N)=O)[C@@H](C)O)[C@@H](O)[C@H](O)[C@H]1O [analogue 6]
Selectivity Ratio GLP-1R vs GCGR (human GLP-1R): 17 | Selectivity Ratio (SR=GCGR EC50/GLP-1 EC50) (GCGR): 17 | pEC50 (GCGR; text on Table 17, read-out: EC50 values for GCGR): 9.05

EC50 (human GLP-1R; read-out: EC50 cAMP GLP-1 R (pM) 0.1% BSA, Table 5, 0.1% BSA): 1270 pM | EC50 (human GLP-1R; read-out: EC50 cAMP GLP-1 R (pM) 0.1% BSA, Table 6, 0.1% BSA): 1270 pM | EC50 (GCGR; read-out: EC50 cAMP glucagon R (pM) 0.1% Ovalb, Table 5, 0.1% ovalbumin): 86 pM
SMILES: CC[C@H](C)[C@H](NC(=O)[C@H](Cc1ccccc1)NC(=O)[C@H](CCC(=O)O)NC(=O)[C@@H]1CCCCNC(=O)CC[C@H](NC(=O)[C@H](CC(=O)O)NC(=O)[C@H](CC(C)C)NC(=O)[C@H](Cc2ccc(O)cc2)NC(=O)[C@H](CCCCN)NC(=O)[C@H](CO)NC(=O)[C@H](Cc2ccc(O)cc2)NC(=O)[C@H](CC(=O)O)NC(=O)[C@H](CO)NC(=O)[C@@H](NC(=O)[C@H](Cc2ccccc2)NC(=O)[C@@H](NC(=O)CNC(=O)[C@H](CCC(N)=O)NC(=O)C(C)(C)NC(=O)[C@@H](N)Cc2c[nH]cn2)[C@@H](C)O)[C@@H](C)O)C(=O)N[C@@H](CCC(N)=O)C(=O)N[C@@H](C)C(=O)N[C@@H](C)C(=O)N1)C(=O)N[C@@H](CCCCNC(=O)[C@H]1O[C@@H](OCCCCCCCCCCCCCCCCCC(=O)O)[C@H](O)[C@@H](O)[C@@H]1O)C(=O)N[C@@H](Cc1c[nH]c2ccccc12)C(=O)N[C@@H](CC(C)C)C(=O)N[C@@H](CC(C)C)C(=O)N[C@@H](CCC(N)=O)C(=O)N[C@H](C(N)=O)[C@@H](C)O [EU-A1872]

Selectivity Ratio GLP-1R vs GCGR (human GLP-1R): 3 | pEC50 (human GLP-1R; cAMP, CHO cells, 0.1% BSA containing buffers, read-out: EC50 hGLP-1R): 11.10 | EC50 (human GLP-1R; [2]): 8.51 pM | EC50 (GCGR; [1]): 20 pM
SMILES: CCCCCCCCO[C@@H]1O[C@H](C(=O)NCCCC[C@H](NC(=O)[C@@H](NC(=O)[C@H](Cc2ccccc2)NC(=O)[C@H](CCC(=O)O)NC(=O)[C@@H]2CCCCNC(=O)CC[C@H](NC(=O)[C@H](CC(=O)O)NC(=O)[C@H](CC(C)C)NC(=O)[C@H](Cc3ccc(O)cc3)NC(=O)[C@H](CCCCN)NC(=O)[C@H](CO)NC(=O)[C@H](Cc3ccc(O)cc3)NC(=O)[C@H](CC(=O)O)NC(=O)[C@H](CO)NC(=O)[C@@H](NC(=O)[C@H](Cc3ccccc3)NC(=O)[C@@H](NC(=O)CNC(=O)[C@H](CCC(N)=O)NC(=O)C(C)(C)NC(=O)[C@@H](N)Cc3c[nH]cn3)[C@@H](C)O)[C@@H](C)O)C(=O)N[C@@H](CCC(N)=O)C(=O)N[C@@H](C)C(=O)N[C@@H](C)C(=O)N2)[C@@H](C)CC)C(=O)N[C@@H](Cc2c[nH]c3ccccc23)C(=O)N[C@@H](CC(C)C)C(=O)N[C@@H](CC(C)C)C(=O)N[C@@H](CCC(N)=O)C(=O)N[C@H](C(N)=O)[C@@H](C)O)[C@@H](O)[C@H](O)[C@H]1O [analogue 1]

SMILES: CCCCCCCCCCCCCCCCO[C@@H]1O[C@H](CO[C@H]2O[C@H](C(=O)NCCCC[C@@H]3NC(=O)[C@@H](NC(=O)[C@H](CC(=O)O)NC(=O)[C@H](CC(C)C)NC(=O)[C@H](Cc4ccc(O)cc4)NC(=O)[C@H](CCCCN)NC(=O)[C@H](CO)NC(=O)[C@H](Cc4ccc(O)cc4)NC(=O)[C@H](CC(=O)O)NC(=O)[C@H](CO)NC(=O)[C@@H](NC(=O)[C@H](Cc4ccccc4)NC(=O)[C@@H](NC(=O)CNC(=O)[C@H](CCC(N)=O)NC(=O)C(C)(C)NC(=O)[C@@H](N)Cc4c[nH]cn4)[C@@H](C)O)[C@@H](C)O)CCC(=O)NCCCC[C@@H](C(=O)N[C@@H](CCC(=O)O)C(=O)N[C@@H](Cc4ccccc4)C(=O)N[C@H](C(=O)N[C@@H](CCC(N)=O)C(=O)N[C@@H](Cc4c[nH]c5ccccc45)C(=O)N[C@@H](CC(C)C)C(=O)N[C@@H](CC(C)C)C(=O)N[C@@H](CCC(N)=O)C(=O)N[C@H](C(N)=O)[C@@H](C)O)[C@@H](C)CC)NC(=O)[C@H](C)NC(=O)[C@H](C)NC3=O)[C@H](O)[C@H](O)[C@H]2O)[C@@H](O)[C@H](O)[C@H]1O [EU-A1588]
Ovalbumin vs. BSA - fold improv/worsen GLP-1 R (human GLP-1R; [3]): 5 fold | Ovalbumin vs. BSA - fold improv/worsen GCG R (GCGR; [3]): 6 fold

SMILES: CCCCCCCCCCCCCCO[C@@H]1O[C@H](C(=O)N[C@@H](CCC(=O)NCCCC[C@H](NC(=O)[C@@H](NC(=O)[C@H](Cc2ccccc2)NC(=O)[C@H](CCC(=O)O)NC(=O)[C@@H]2CCCCNC(=O)CC[C@H](NC(=O)[C@H](CC(=O)O)NC(=O)[C@H](CC(C)C)NC(=O)[C@H](Cc3ccc(O)cc3)NC(=O)[C@H](CCCCN)NC(=O)[C@H](CO)NC(=O)[C@H](Cc3ccc(O)cc3)NC(=O)[C@H](CC(=O)O)NC(=O)[C@H](CO)NC(=O)[C@@H](NC(=O)[C@H](Cc3ccccc3)NC(=O)[C@@H](NC(=O)CNC(=O)[C@H](CCC(N)=O)NC(=O)C(C)(C)NC(=O)[C@@H](N)Cc3c[nH]cn3)[C@@H](C)O)[C@@H](C)O)C(=O)N[C@@H](CCC(N)=O)C(=O)N[C@@H](C)C(=O)N[C@@H](C)C(=O)N2)[C@@H](C)CC)C(=O)N[C@@H](Cc2c[nH]c3ccccc23)C(=O)N[C@@H](CC(C)C)C(=O)N[C@@H](CC(C)C)C(=O)N[C@@H](CCC(N)=O)C(=O)N[C@H](C(N)=O)[C@@H](C)O)C(=O)O)[C@@H](O)[C@H](O)[C@H]1O [analogue 14]
Selectivity Ratio GLP-1R vs GCGR (human GLP-1R): 2 | EC50 (human GLP-1R; [2]): 42.7 pM | GCGR activation potency (vs 4) (GCGR): significantly weakened GCGR activation potency
